“And” between values parts separate entries of the source, which are not always exact repeats. Identical values can stand only once.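 Briefly, cells in 96-well plates were exposed to five compound concentrations for 48 h, and endpoints were estimated by linear interpolation. At the GI50, growth is halved. Definition used: TGI = concentration required for complete inhibition of growth.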
Assays:
Test in all cases: NCI anticancer screen, dose series, 48 h
CAKI-1 renal = system: CAKI-1 renal
HCT-15 colon = system: HCT-15 colon
HOP-92 NSCLC = system: HOP-92 NSCLC
K-562 leukemia = system: K-562 leukemia
KM12 colon = system: KM12 colon
NCI-H226 lung = system: NCI-H226 lung
RXF 393 renal = system: RXF 393 renal
SW-620 colon = system: SW-620 colon
U251 CNS = system: U251 CNS
UACC-257 melanoma = system: UACC-257 melanoma

Row | Structure (SMILES) | TGI (CAKI-1 renal) [µM] | TGI (HCT-15 colon) [µM] | TGI (HOP-92 NSCLC) | TGI (K-562 leukemia) [µM] | TGI (KM12 colon) [µM] | TGI (NCI-H226 lung) [µM] | TGI (RXF 393 renal) | TGI (SW-620 colon) [µM] | TGI (U251 CNS) | TGI (UACC-257 melanoma) | GI50 (CAKI-1 renal) | GI50 (HCT-15 colon) | GI50 (HOP-92 NSCLC) | GI50 (K-562 leukemia) | GI50 (KM12 colon) | GI50 (NCI-H226 lung) | GI50 (RXF 393 renal) | GI50 (SW-620 colon) | GI50 (U251 CNS) [µM] | GI50 (UACC-257 melanoma)
1 | COC(COC(=O)N1CCN(C=O)CC1)C1=C(N2CC2)C(=O)C(C)=C(N2CC2)C1=O (stereo not drawn) | 3.6 | 8.1 | 0.919 µM | > 100 | 2.79 | 3.05 | 0.815 µM | 1.59 | 2.71 µM | 1.9 µM |  |  |  |  |  |  |  |  |  | 
2 | O=c1[nH]c2cc(Cl)ccc2n1C1CCN(CCCC(c2ccc(F)cc2)c2ccc(F)cc2)CC1 | 1.97 | 2.76 | 2.41 µM | > 100 | 3.27 | 3.53 | 2.02 µM | 2.99 | 2.87 µM | 3.04 µM | 0.488 µM | 1.45 µM | 1.01 µM | 2.98 µM | 1.68 µM | 1.87 µM | 0.48 µM | 1.52 µM | 1.54 | 1.56 µM
3 | O=C(N/N=C\c1cc(Br)ccc1O)c1ccncc1 | > 100 | > 100 | 45.4 µM | > 100 | > 100 | 32.6 | > 100 µM | > 100 | 68.8 µM | 15.9 µM | 1.04 µM | 0.563 µM | 2.22 µM | 3.37 µM | 1.97 µM | 1.86 µM | 1.89 µM | 2.66 µM | 1.92 | 2.33 µM
4 | O=C(Nc1cccc(Cl)c1)c1cc2ccccc2cc1O | > 100 | > 100 | 3.66 µM and 0.973 µM | > 100 | > 100 | > 100 | > 100 µM and 14.5 µM | > 100 | 19.6 µM and 8.44 µM | 7.31 µM and 6.11 µM | 2.1 µM and 1.51 µM | 2.38 µM and 2.36 µM | 0.41 µM and 0.306 µM | 1.38 µM and 0.888 µM | 3.17 µM and 2.71 µM | 4.65 µM and 2.68 µM | 2.74 µM and 2.93 µM | 3.14 µM and 3.1 µM | 1.74 | 1.03 µM and 2.26 µM
5 | N#CC1(C2SCCS2=O)C2=C(C(=O)c3ccccc3C2=O)N2CCCC21 (stereo not drawn) | 15 | 6.63 | 11.9 µM | 25.7 | 13.1 | 10.7 | 10.9 µM | 6.41 | 11.3 µM | 2.99 µM |  |  |  |  |  |  |  |  |  | 
6 | N#CC(C#N)=c1[nH]c2cccc3c2-c2c(cccc2c3=C(C#N)C#N)[nH]1 | > 100 | > 100 | > 100 µM | > 100 | > 100 | > 100 | > 100 µM | > 100 | > 100 µM | > 100 µM |  |  |  |  |  |  |  |  |  | 
7 | O/N=C\c1c(O)ccc2ccccc12 | > 100 | > 100 | > 100 µM | > 100 | > 100 | > 100 | > 100 µM | > 100 | > 100 µM | > 100 µM |  |  |  |  |  |  |  |  |  | 
8 | COc1ccc(/C=c2/sc3n(c2=O)C(c2ccc(OC)c(OC)c2)C2=C(N=3)c3cc(F)ccc3OC2)cc1 (stereo not drawn) | 41.7 | > 83 | > 65 µM | > 100 | > 79.2 | > 60.2 | > 100 µM | > 100 | > 78.5 µM | > 88.8 µM | 10.1 µM | 22.2 µM | 14.3 µM | 19.9 µM | 18.1 µM | 9.17 µM | > 100 µM | 50.5 µM | 20.9 | 35 µM
9 | c1ccc2c3ccn4cc5c(cc4c-3nc2c1)CCCC5 | > 100 | > 100 | 48.7 µM | 12.6 | 8.59 | 10.2 | 27 µM | 9.85 | 13.6 µM | 38.2 µM | 34.9 µM | 24.1 µM | 5.04 µM | 1.95 µM |  | 3.3 µM | 5.62 µM |  | 3.22 | 5.42 µM
10 | O=C(CN(C1CCCCC1)C1CCCCC1)Nc1ccc(S(=O)(=O)c2ccc(NC(=O)CN(C3CCCCC3)C3CCCCC3)cc2)cc1 | 2.35 | 0.568 | 2.93 µM | 1.38 | 2.05 | 9.43 | 2.31 µM | 0.65 | 0.742 µM | 3.66 µM | 1.14 µM | 0.181 µM | 1.39 µM | 0.277 µM | 0.585 µM | 2.06 µM | 0.817 µM | 0.228 µM | 0.234 | 1.37 µM
11 | O=C1CSC(Cc2nc3ccccc3[nH]2)=N1 | 31.4 | 37.7 | 57.8 µM | > 100 | > 64.1 | 28.3 | 33.1 µM | > 100 | 49 µM | > 90.7 µM |  |  |  |  |  |  |  |  |  | 
12 | COc1cc2cn3c4ccc(O)cc4[nH]c(=O)c3c2cc1OC | 1.3 | 1.35 | 7.72 µM | 1.68 | 1.48 | 16.8 | 1.49 µM | 1.83 | 1.23 µM | 0.419 µM | 0.0158 µM | 0.0207 µM | 2.14 µM | < 0.0117 µM | 0.0451 µM | 0.0374 µM | < 0.0122 µM | < 0.0119 µM | < 0.01 | < 0.0212 µM
13 | NC(=O)C(=CNc1nc(-c2ccc(Cl)c(Cl)c2)cs1)C(N)=O | > 100 | > 100 | > 100 µM | > 100 | > 100 | > 100 | > 100 µM | > 100 | > 100 µM | > 100 µM | 25.3 µM | 84.7 µM | > 100 µM | 75.8 µM | > 100 µM | > 100 µM | > 100 µM | > 100 µM | 65 | > 100 µM
14 | CCCCCCCCCc1cc(=O)c2c(O)cccc2o1 | > 100 | > 100 | > 100 µM | > 100 | > 100 | > 100 | > 100 µM | > 100 | > 100 µM | > 100 µM |  |  |  |  |  |  |  |  |  | 
15 | COc1ccccc1/C=C/c1cnccn1 | > 10 | > 10 | > 10 µM | > 10 | > 10 | > 10 | > 10 µM | > 10 | > 10 µM | > 10 µM |  |  |  |  |  |  |  |  |  | 
